One compound from publication PMC8480782, “Efficient Dimerization Disruption of Leishmania infantum Trypanothione Reductase by Triazole-phenyl-thiazoles” (Journal of Medicinal Chemistry, 2021) can be followed below.

One may read the IC50 as the concentration needed to halve the response being measured. As usually defined, the melting point is the temperature, or range, at which the solid turns liquid.

One data set deals with T1, LiTryR dimer (Leishmania infantum, UniProt A4HSF7).
T1 construct: made in house; host or cells: E. coli BL21 (DE3) Rossetta (co-transformed with both plasmids)
T1 sequence (A4HSF7 1-491): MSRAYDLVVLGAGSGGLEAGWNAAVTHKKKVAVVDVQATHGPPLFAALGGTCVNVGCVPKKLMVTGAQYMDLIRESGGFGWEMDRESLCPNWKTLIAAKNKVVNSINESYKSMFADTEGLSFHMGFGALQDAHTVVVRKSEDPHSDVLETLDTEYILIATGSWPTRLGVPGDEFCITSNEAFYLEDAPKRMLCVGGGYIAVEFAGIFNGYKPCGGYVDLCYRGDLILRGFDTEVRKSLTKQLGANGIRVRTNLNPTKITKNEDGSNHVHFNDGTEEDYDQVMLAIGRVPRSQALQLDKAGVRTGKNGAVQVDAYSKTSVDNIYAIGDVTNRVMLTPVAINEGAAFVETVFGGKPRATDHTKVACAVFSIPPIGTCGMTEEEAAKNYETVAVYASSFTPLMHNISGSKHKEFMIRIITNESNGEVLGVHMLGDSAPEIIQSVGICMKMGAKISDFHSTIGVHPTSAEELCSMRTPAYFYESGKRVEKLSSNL
Nature of the data set: biochemical. The note with it: 400 nM LiTryR, 16 h at 37 °C; read-out: IC50^dim, LiTryR monomer displacement (dimer quantitation ELISA). On the procedure:
The stability of the LiTryR dimeric form in the presence of 1,2,3-triazole-phenyl-thiazole-based compounds was evaluated using the novel enzyme-linked immunosorbent assay (ELISA) developed in our laboratory.[25] […] Next, the different solutions were centrifuged at 18 000g for 15 min at room temperature. The supernatants (200 μL/well) were added to the α-FLAG-coated plates (Sigma-Aldrich, St. Louis, MO) and incubated for 30 min at 37 °C with agitation in a humid atmosphere. The plates were washed five times with TTBS buffer (2 mM Tris, pH 7.6, 138 mM NaCl, and 0.1% Tween-20) and incubated with diluted monoclonal α-HIS horseradish peroxidase (HRP)-conjugated antibody (200 μL, 1:50 000, Abcam, Cambridge, U.K.) in fatty acid- and essentially globulin-free bovine serum albumin (BSA) (5%) prepared in TTBS buffer for 1 h at room temperature. The plates were washed five times, and o-phenylenediamine dihydrochloride (OPD) substrate prepared according to the manufacturer’s instructions was added. The enzymatic reaction was stopped after 5 min with H2SO4 (100 μL, […]), and the absorbances were measured at 490 nm in an EnSpire Multimode Plate Reader (PerkinElmer, Waltham, MA). All of the assays were conducted in triplicate in at least three independent experiments. Data were analyzed using a nonlinear regression model with GraFit 6 software (Erithacus, Horley, Surrey, U.K.).
(In general: In an ELISA, binding on a coated surface is turned into a signal by an enzyme label.)

The target of the next data set is T2, LiTryR (Leishmania infantum, UniProt A4HSF7).
T2 construct: HIS (N); made in house; host or cells: E. coli BL21 (DE3) Rossetta
T2 sequence (A4HSF7 1-491): as above
Nature of the data set: biochemical. It is filed as biochemical. The note with it: LiTryR; 1 μM TS2; maximum assayed 75 μM; read-out: IC50^act, TryR oxidoreductase activity. On the procedure: A concentration of 1 μM TS2 was used for this initial screening. This low substrate concentration is sufficient for comparison of compound inhibitory activity in the oxidoreductase assay.
Recombinant L. infantum TryR (LiTryR) HIS-tagged and HIS-FLAG-tagged versions were used for all LiTryR oxidoreductase activity and dimer quantitation assays. These LiTryR versions were purified from Escherichia coli as previously described.[25] Briefly, pRSETA-HIS-LiTryR construct alone or in combination with the pET24a-FLAG-LiTryR construct was transformed into BL21 (DE3) Rossetta E. coli strain. An overnight E. coli culture grown at 37 °C in Luria–Bertani (LB) medium with the appropriate antibiotics and vigorous shaking was diluted (1:100) in the same medium and allowed to grow in the same conditions until the OD600 was 0.5. Then, LiTryR expression was induced by addition of 1 mM isopropyl-β-D-1-thiogalactopyranoside (IPTG) for 16 h at 26 °C. The cells were centrifuged for 5 min at 9000g and 4 °C and the wet pellet resuspended in lysis buffer (50 mM Tris, pH 7, 300 mM NaCl, 25 mM imidazole, protease inhibitor cocktail, and 1 mg/mL lysozyme). […] The supernatant was sonicated again as previously described for 10 min and loaded on a HisTrap column (GE Healthcare, Chicago, IL) for 16 h at 4 °C using a P-1 peristaltic pump (GE Healthcare, Chicago, IL). Once loaded, the HisTrap column was connected to an ÄKTA purifier UPC 10 (GE Healthcare, Chicago, IL) and washed using a 5–10% gradient between buffer A (50 mM Tris, pH 7 and 300 mM NaCl) and B (50 mM Tris, pH 7, 300 mM NaCl, and 500 mM imidazole). LiTryR was eluted using a 40% gradient between buffers A and B. Fractions containing recombinant LiTryR were pooled and loaded into a HiPrep 26/10 Desalting column (GE Healthcare, Chicago, IL) previously equilibrated with buffer A. Finally, LiTryR was concentrated to 2 mg/mL using an Amicon Ultra-15 50K (Merck Millipore, Burlington, MA) and an equal volume of glycerol was added before storing at −20 °C.
TryR oxidoreductase activity was determined spectrophotometrically using a modified version of the DTNB-coupled assay described by Hamilton et al.[52] Briefly, reactions were carried out at 26 °C in 250 μL of N-(2-hydroxyethyl)piperazine-N′-ethanesulfonic acid (HEPES) buffer (pH 7.5, 40 mM) containing ethylenediaminetetraacetic acid (EDTA) (1 mM), NADP^+ (30 μM), DTNB (25 μM), TS2 (1 μM), NADPH (150 μM), glycerol (0.02%), DMSO (1.75%), and recombinant TryR (7 nM). […] Reactions were started by addition of a mixture of NADPH and TS2.
TryR oxidoreductase activity was monitored at 26 °C by an increase in absorbance at 412 nm in an EnSpire Multimode Plate Reader (PerkinElmer, Waltham, MA). […] (TNB) concentration was obtained by multiplying the absorbance values by 100 (50 μM TNB generates 0.5 arbitrary units of absorbance at 412 nm). In this DTNB-coupled assay, one molecule of T(SH)2 reduces one molecule of DTNB, producing two TNB molecules. All of the assays were conducted in at least three independent experiments. Data were analyzed using a nonlinear regression model with GraFit 6 software (Erithacus, Horley, Surrey, U.K.).

Take `O=C(O)CCCc1cn(-c2ccc(-c3nc(CCc4ccccc4)cs3)c(OCCN3CCNC3=O)c2)nn1` [12g]: the melting point fell in the range of 174.5 to 177.5 °C. In addition, at LiTryR dimer, the IC50 is > 75 µM. The IC50 at LiTryR was > 75 µM.
